Data on three compounds can be found in patent US6548543B1, “Remedies or preventives containing cyclopentenone compounds as the active ingredient” (Takara Shuzo Co., Ltd., priority 1998, dated 2003).

Structures are written as SMILES. A value given as a limit tells only on which side of the number the result lay.

The subject of experiment [1] is adhesion between vascular endothelial cells and HL-60 cells. Kind of experiment: Adhesion of HL-60 cells to TNF-α-stimulated vascular endothelial cells. Format: cell-based, Human. The conditions noted are these: for Adhesion rate: TNF-α-stimulated endothelial cells; for Suppression of TNF-α-induced increase in adhesion rate (statement): 10^−7 to 10^−4 M, dose-dependent. How it is done: Human vascular endothelial cells (sold by Sanko Junyaku) suspended in RPMI-1640 medium (Gibco) containing 10% FCS (HyClone) at a concentration of 1×10^5 cells/ml. 100 μl/well of the suspension was seeded into a 96-well microtiter plate.
100 U/ml of human recombinant TNF-α (Promega) was added to monolayer of vascular endothelial cells after incubation at 37° C. for 2 days in a 5% CO2 incubator. The plate was incubated 37° C. for 6 hours in a 5% CO2 incubator to prepare vascular endothelial cells stimulated with TNF-α.
On the other hand, cyclopentenone, GM or dipropionylcyclopentenone at a varying concentration was added to HL-60 cells suspended in RPMI-1640 medium containing 10% FCS at a concentration of 1×10^6 cells/ml. The cells were cultured at 37° C. for 3 hours in a 5% CO2 incubator. After cultivation, 5 μM of 5(-and-6)-carboxyfluorescein diacetate, succinimide ester (Molecular Probe) as a fluorescent agent was added thereto and reacted at 37° C. for 10 minutes. The cells were washed twice with RPMI-1640 medium and suspended in RPMI-1640 medium containing 10% FCS to prepare a suspension of fluorescence-labeled HL-60 cells at a concentration of 1×10^6 cells/ml.
100 μl/well of the fluorescence-labeled HL-60 cells were overlaid onto the vascular endothelial cells stimulated with TNF-α. Cyclopentenone, GM or dipropionylcyclopentenone at a varying concentration was added thereto. The plate was incubated at 37° C. for 20 minutes in a 5% CO2 incubator for adhesion reaction between vascular endothelial cells and HL-60 cells.
After the adhesion reaction, the plate was washed to remove non-adhesive cells. 1% Triton X (Nacalai Tesque) was added thereto to destroy adhesive cells. The fluorescence intensity was measured using filters for 485/22 nm (excitation) and 530/25 nm (emission).
The adhesion rate which represents the ratio of cells adhered to vascular endothelial cells was determined defining the fluorescence intensity for 1×10^5 fluorescence-labeled cells as 100%.

Experiment [2] relates to spleen lymphocytes stimulated with Ehrlich ascites carcinoma cells. Kind of experiment: Cancer cell-specific proliferation of spleen lymphocytes from treated tumor-bearing mice. Particulars: for Growth of spleen lymphocytes on stimulation with cancer cells (statement): mice administered intraperitoneally. It is filed as in vivo, ddY mice. How it is done:
ddY mice (female, 7 weeks old) were purchased from Japan SLC and pre-bred 1 week before using in experiments.
1×10^6 Ehrlich ascites carcinoma cells were intraperitoneally inoculated to each mouse. 10 mg/kg of cyclopentene, 30 mg/kg of GM or 10 mg/kg of dipropionylcyclopentene was intraperitoneally administered to the mouse on the day after the inoculation. Saline was administered to a control mouse.
A spleen was taken out from the mouse 10 days after the inoculation with cancer cells, finely minced and suspended in RPMI-1640 medium (Gibco) containing 10% FCS (HyClone) to obtain a single cell suspension. Adhesive cells in the cell suspension adhered to a plastic Petri dish were removed and non-adhesive cells were used as spleen lymphocytes.
The spleen lymphocytes were suspended in RPMI-1640 medium containing 10% FCS at a concentration of 2×10^6/ml. 100 μl/well of the suspension was seeded into a microtiter plate.
Stimulated cells were prepared as follows. Mitomycin C (Kyowa Hakko Kogyo) was added to a concentration of 50 μg/ml to Ehrlich ascites carcinoma cells suspended in RPMI-1640 medium at a concentration of 2×10^6 cells/ml. The cells were treated at 37° C. for 30 minutes, washed twice and then suspended in RPMI-1640 medium containing 10% FCS to prepare stimulated cells at a concentration of 2×10^6 cells/ml. 100 μl of the thus prepared stimulated cells was overlaid onto each well of the plate into which 100 μl/well of the spleen lymphocytes had been added. The plate was incubated at 37° C. for 5 days in a 5% CO2 incubator. 37 kBq of ^3H-thymidine (Daiichi Pure Chemicals) was added to the well to pulse-label the cells on the day before the completion of the cultivation. After cultivation, the cells were harvested on a glass filter to measure the radioactivity.

The test system of experiment [3] is NK cells. Format: in vivo, ddY mice. Particulars: mice administered intraperitoneally. On the procedure: ddY mice (female, 7 weeks old) were purchased from Japan SLC and pre-bred for 1 week before using in experiments.
1×10^6 Ehrlich ascites carcinoma cells were intraperitoneally inoculated to each mouse. 10 mg/kg of cyclopentenone, 30 mg/kg of GM or 10 mg/kg of dipropionylcyclopentenone was intraperitoneally administered to the mouse on the day after the inoculation. Saline was administered to a control mouse.
A spleen was taken out from the mouse 10 days after the inoculation with cancer cells, finely minced and suspended in RPMI-1640 medium containing 10% FCS (HyClone) to obtain a single cell suspension. Adhesive cells adhered to a plastic Petri dish were removed from the cell suspension and non-adhesive cells were used as NK cells.
The NK cells were suspended in RPMI-1640 medium containing 10% FCS at a concentration of 6×10^6/ml. 100 μl/well of the suspension was seeded into a microtiter plate.
Target cells were prepared as follows. 3700 kBq of ^51Cr (Amersham) was added to 1×10^6 YAC-1 cells (Dainippon Pharmaceutical). The cells were cultured at 37° C. for 1 hour for labeling. The labeled cells were washed twice and then suspended in RPMI-1640 medium containing 10% FCS at a concentration of 2×10^5 cells/ml. […] The radioactivity (experimental value) was measured using an auto gamma counter.
100 μl of the culture medium was added to the reaction system in place of the NK cells and the radioactivity was measured in order to measure the radioactivity spontaneously released from the target cells (control value).
Furthermore, the radioactivity released into the supernatant when 1% Triton (Nacalai Tesque) was added to the reaction system to lyse the 51Cr-labeled YAC-1 cells was measured in order to measure the total radioactivity contained in the reaction system (total radioactivity value).
The cytotoxicity (%) specifically mediated by the NK cells can be determined according to the following equation.
Cytotoxicity (%)=[(experimental value−control value)/(total radioactivity value−control value)]×100

The test system of experiment [4] is HL-60 (ATCC CCL-240) cells. In words: Viability and apoptosis of HL-60 cells (Trypan Blue, optical microscope). Format: cell-based. Particulars: Homo sapiens, 24 hours, Trypan Blue, read-out: Viability50 (concentration that results in a viability of 50%). How it is done: HL-60 (ATCC CCL-240) cells were cultured at 37° C. in RPMI 1640 medium (Bio Whittaker) containing 10% fetal calf serum (FCS; JRH) which had been treated at 56° C. for 30 minutes and suspended in RPMI 1640 medium at a concentration of 2.5×10^5 cells/5 ml.
10 μl each of solutions of diisobutyrylcyclopentenone, dimethoxyacetylcyclopentenone, dimethylfumarylcyclopentenone or dimethylmaleylcyclopentenone in 70% ethanol in water diluted to varying concentrations was added to 5 ml of the suspension. The mixtures were incubated at 37° C. for 24 hours in the presence of 5% Co2. 10 μl of aqueous actinomycin D (Sigma) solution (0.5 mg/ml), which is known as a reagent that induces apoptosis, was used in place of the sample and the mixture was incubated under the same conditions for confirmation.
The cultured cells were examined under an optical microscope.
Furthermore, a portion of the cells cultured as described above was stained with 0.4% Trypan Blue and examined under an optical microscope. The number of viable cells which were not stained and the number of dead cells which were stained blue were counted. The concentration of each of the samples that results in a viability of 50% (Viability50 μM) was determined.

Experiment [5] deals with T1, topoisomerase II (Homo sapiens, UniProt P11388).
T1 construct: purchased TopoGEN
T1 sequence (P11388 whole entry): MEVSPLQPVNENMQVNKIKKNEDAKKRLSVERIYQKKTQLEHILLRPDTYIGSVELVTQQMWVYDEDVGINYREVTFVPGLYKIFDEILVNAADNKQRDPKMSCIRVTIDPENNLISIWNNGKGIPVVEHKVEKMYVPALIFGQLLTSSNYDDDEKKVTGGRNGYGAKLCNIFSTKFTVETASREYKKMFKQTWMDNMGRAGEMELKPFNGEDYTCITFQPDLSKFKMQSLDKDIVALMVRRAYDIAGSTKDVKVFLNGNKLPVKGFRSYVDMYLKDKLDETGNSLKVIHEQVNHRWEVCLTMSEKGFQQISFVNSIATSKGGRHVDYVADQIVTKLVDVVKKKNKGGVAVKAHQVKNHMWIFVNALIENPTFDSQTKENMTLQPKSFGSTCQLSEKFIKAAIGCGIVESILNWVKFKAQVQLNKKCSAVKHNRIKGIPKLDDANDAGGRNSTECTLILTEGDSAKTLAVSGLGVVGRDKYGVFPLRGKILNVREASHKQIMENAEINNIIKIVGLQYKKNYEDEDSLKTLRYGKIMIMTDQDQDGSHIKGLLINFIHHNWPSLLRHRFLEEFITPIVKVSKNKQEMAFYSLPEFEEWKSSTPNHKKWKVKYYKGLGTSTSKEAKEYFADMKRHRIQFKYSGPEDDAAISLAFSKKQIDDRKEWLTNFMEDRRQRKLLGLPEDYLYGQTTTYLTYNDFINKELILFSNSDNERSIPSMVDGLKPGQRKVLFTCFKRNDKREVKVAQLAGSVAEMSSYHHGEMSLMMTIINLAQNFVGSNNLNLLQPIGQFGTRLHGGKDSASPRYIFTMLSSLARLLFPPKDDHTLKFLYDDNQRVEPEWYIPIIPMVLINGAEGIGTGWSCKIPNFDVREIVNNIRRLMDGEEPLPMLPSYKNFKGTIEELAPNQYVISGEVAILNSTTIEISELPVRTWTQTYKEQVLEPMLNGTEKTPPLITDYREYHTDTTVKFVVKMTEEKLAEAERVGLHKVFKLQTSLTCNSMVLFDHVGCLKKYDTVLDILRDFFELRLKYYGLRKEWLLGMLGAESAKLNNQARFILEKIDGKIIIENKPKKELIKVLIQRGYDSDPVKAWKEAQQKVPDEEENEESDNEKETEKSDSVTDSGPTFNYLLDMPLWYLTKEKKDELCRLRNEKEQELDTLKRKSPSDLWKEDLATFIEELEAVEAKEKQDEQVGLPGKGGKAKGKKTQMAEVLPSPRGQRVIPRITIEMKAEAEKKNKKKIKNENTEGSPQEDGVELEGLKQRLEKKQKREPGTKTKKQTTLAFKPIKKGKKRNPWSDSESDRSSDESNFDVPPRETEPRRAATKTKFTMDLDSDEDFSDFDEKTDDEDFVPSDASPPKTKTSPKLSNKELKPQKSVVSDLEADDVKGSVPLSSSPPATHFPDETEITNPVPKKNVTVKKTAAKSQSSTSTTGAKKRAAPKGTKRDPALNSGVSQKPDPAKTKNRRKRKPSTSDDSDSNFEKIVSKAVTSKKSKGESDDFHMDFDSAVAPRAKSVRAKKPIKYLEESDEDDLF
Kind of experiment: Topoisomerase II inhibition, pBR322 DNA relaxation. It is filed as biochemical. Particulars: 37° C., 30 minutes. On the procedure:
(1) 2 μl of topoisomerase II (TopoGEN; 2 units/μl), 2 μl of 10-fold concentrated buffer [0.5 M Tris-HCl (pH 8.0), 1.2 M KCl, 0.1 M MgCl2, 2.5 mM adenosine triphosphate, 5 mM dithiothreitol], 2 μl of 0.1% bovine serum albumin (Takara Shuzo), 11 μl of distilled water and 2 μl of distilled water (control) or 2 μl of one of aqueous solutions of dipropionylcyclopentenone, diisobutyrylcyclopentenone, dibenzoylcyclopentenone, dihexanoylcyclopentenone, di-2-hexenoylcyclopentenone, dimethoxyacetylcyclopentenone, dimethylfumarylcyclopentenone or dimethylmaleylcyclopentenone at varying concentrations were mixed together. 1 μl of 0.25 μg/μl pBR322 DNA (Takara Shuzo) was added thereto. The resulting mixture was reacted at 37° C. After reacting for 30 minutes, 2 μl of an aqueous solution containing 1% sodium dodecyl sulfate, 50% glycerol and 0.02% Bromophenol Blue was added thereto to stop the reaction.
20 μl of the reaction mixture was applied to 1% agarose gel prepared using agarose L03 (Takara Shuzo) and TAE buffer [40 mM Tris, 5 mM sodium acetate, 1 mm ethylenediaminetetraacetic acid disodium salt (EDTA); adjusted to pH 7.8 using acetic acid] and electrophoresed in TAE buffer. After electrophoresis, the gel was soaked in a 1 μg/ml aqueous ethidium bromide solution. The gel was exposed to ultraviolet rays to visualize the electophoretic pattern of DNA.

In the case of `O=C1C=CC(O)C1O` (centres unmarked) [Cyclopentenone, 4,5-dihydroxy-2-cyclopenten-1-one], the Adhesion rate in experiment [1] (0.1 μM) turned out to be 51.7%; in experiment [1] (1 μM), 46.0%; in experiment [1] (10 μM), 22.2%; in experiment [1] (100 μM), 17.9%. Besides, the “Suppression of TNF-α-induced increase in adhesion rate (statement)” value in experiment [1] is reported as “suppressed”. Also, the 3H-thymidine uptake in experiment [2] (10 mg/kg intraperitoneal, no stimulation with cancer cell) was 9680 CPM; in experiment [2] (10 mg/kg intraperitoneal, stimulation with cancer cell) it was 25756 CPM. In experiment [2], the “Growth of spleen lymphocytes on stimulation with cancer cells (statement)” value is “significantly enhanced”. Further, the “Activation of NK cells (statement)” value in experiment [3] is “Activation of NK cells was observed”.

As for `COC(=O)/C=C\C(=O)OC1C=CC(=O)C1OC(=O)CCC(=O)OC` (centres unmarked) [Dimethylmaleylcyclopentenone, dimethylmaleylcyclopentenone], in experiment [4], the IC50 is 3.4 µM. The “Concentration at which change of DNA from superhelical type to relaxed type was partially or completely inhibited” value in experiment [5] is not below 5 µM.

On to `N[C@@H](CCC(=O)N[C@@H](CSC1C=C(O)C(=O)C1)C(=O)NCC(=O)O)C(=O)O` (some centres unmarked) [GM, 2-hydroxy-4-glutathion-S-yl-2-cyclopenten-1-one], for which the Adhesion rate in experiment [1] (0.1 μM) worked out at 53.9%; in experiment [1] (1 μM), 48.3%; in experiment [1] (10 μM), 23.9%; in experiment [1] (100 μM), 16.3%. In addition, the “Suppression of TNF-α-induced increase in adhesion rate (statement)” value in experiment [1] is listed as “suppressed”. Also, the 3H-thymidine uptake in experiment [2] (30 mg/kg intraperitoneal, no stimulation with cancer cell) was 8700 CPM; in experiment [2] (30 mg/kg intraperitoneal, stimulation with cancer cell), 36291 CPM. Also, the “Growth of spleen lymphocytes on stimulation with cancer cells (statement)” value in experiment [2] was “significantly enhanced”. In addition, the “Activation of NK cells (statement)” value in experiment [3] was “Activation of NK cells was observed”.
